# Data reported in patent US11072632B2, “Inhibitors of 17β-HSD1, 17β-HSD3 and 17β-HSD10” (UNIVERSITÉ LAVAL, priority 2011, dated 2021).
# Read-outs that look alike come from different tables or passages of the source.
# Legend:
# 17β-HSD3 [1] = molecular target: T1, 17β-HSD3 (Homo sapiens, UniProt P37058); assay: Inhibition of 17β-HSD3 in homogenated HEK-293 cells; type: biochemical
# T1 construct: expressed in transfected cells; host or cells: HEK-293 (homogenate)
# T1 sequence (P37058 1-310): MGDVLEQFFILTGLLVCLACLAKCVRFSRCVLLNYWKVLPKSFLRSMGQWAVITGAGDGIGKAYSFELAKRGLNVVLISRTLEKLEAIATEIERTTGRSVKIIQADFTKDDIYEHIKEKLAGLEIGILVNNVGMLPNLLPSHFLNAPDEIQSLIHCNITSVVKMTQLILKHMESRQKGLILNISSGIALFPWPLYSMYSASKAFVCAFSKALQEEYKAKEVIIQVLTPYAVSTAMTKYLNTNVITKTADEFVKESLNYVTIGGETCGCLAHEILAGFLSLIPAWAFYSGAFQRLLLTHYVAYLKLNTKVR
# 17β-HSD3 [2] = molecular target: T1, 17β-HSD3; assay: Inhibition of 17β-HSD3 in intact HEK-293 cells; type: cell-based; details: for inhibition at 0.1 µM: HEK293, 1 h, read-out: Intact cells (%) (0.1 μM); for inhibition at 0.1 µM / Intact cells (%) (0.1 μM): Table 3; for Intact cells (%), tested at 1 μM: Table 3, footnote b
# 17β-HSD10 = molecular target: T2, 17β-HSD10 (Homo sapiens, UniProt Q99714); assay: Inhibition of 17β-HSD10 in stably transfected HEK-293 whole cells (E2 into E1); type: cell-based; details: for inhibition at 1 µM: HEK293, read-out: Inhibition (%) at 1 μM; for inhibition at 1 µM / Inhibition (%) at 1 μM: [14C]-E2 (1 μM) into [14C]-E1, intact HEK-293 cells; for IC50: intact transfected HEK-293 cells, E2 1 μM, read-out: IC50
# T2 construct: expressed in transfected cells
# T2 sequence (Q99714 1-261): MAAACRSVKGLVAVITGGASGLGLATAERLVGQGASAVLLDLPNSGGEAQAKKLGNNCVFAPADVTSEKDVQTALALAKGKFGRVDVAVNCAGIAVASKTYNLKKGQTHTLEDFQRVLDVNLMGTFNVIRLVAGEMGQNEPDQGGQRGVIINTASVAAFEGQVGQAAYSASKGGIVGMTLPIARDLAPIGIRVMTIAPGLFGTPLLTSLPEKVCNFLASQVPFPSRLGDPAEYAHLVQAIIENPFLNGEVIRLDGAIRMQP
# [3] = Table 3, read-out: Homo (%) (0.01 μM)
# [4] = Table 3, read-out: Homo (%) (0.1 μM)
Structure (SMILES),inhibition at 0.01 µM (17β-HSD3 [1]; [3]),inhibition at 0.1 µM (17β-HSD3 [1]; [4]),inhibition at 0.1 µM (17β-HSD3 [2]; 0.1 μM),inhibition at 1 µM (17β-HSD10),Homo (%) (0.01 μM) (17β-HSD3 [1]; Table 3),Homo (%) (0.1 μM) (17β-HSD3 [1]; Table 3),"Intact cells (%), tested at 1 μM (17β-HSD3 [2])",Inhibition (%) at 1 μM (17β-HSD10),further results
"C[C@]12CC[C@](O)(CN3CCN(Cc4ccccc4C(F)(F)F)CC3)C[C@@H]1CC[C@@H]1[C@@H]2CC[C@]2(C)C(=O)CC[C@@H]12 [Compound 10b, (3α,5α)-3-hydroxy-3-({4-[2-(trifluoromethyl)benzyl]piperazin-1-yl}methyl)androstan-17-one]",18%,86%,20%,50%,–,–,–,–,–
"C[C@]12CC[C@](O)(CN3CCN(S(=O)(=O)c4ccccc4C(F)(F)F)CC3)C[C@@H]1CC[C@@H]1[C@@H]2CC[C@]2(C)C(=O)CC[C@@H]12 [Compound 14b, (3α,5α)-3-hydroxy-3-[(4-{[2-(trifluoromethyl)phenyl]sulfonyl}piperazin-1-yl)methyl]androstan-17-one]",45%,92%,45%,32%,–,–,–,–,–
"C[C@]12CC[C@](O)(CN3CCN(C(=O)c4ccccc4C(F)(F)F)CC3)C[C@@H]1CC[C@@H]1[C@@H]2CC[C@]2(C)C(=O)CC[C@@H]12 [Compound 12c, (3α,5α)-3-hydroxy-3-[(4-{[2-(trifluoromethyl)phenyl]carbonyl}-piperazin-1-yl)methyl]androstan-17-one]",31%,86%,62%,47%,–,–,–,–,–
"C[C@]12CC[C@](O)(CN3CCN(Cc4cccc(Cl)c4)CC3)C[C@@H]1CC[C@@H]1[C@@H]2CC[C@]2(C)C(=O)CC[C@@H]12 [Compound 10e, (3α,5α)-3-{[4-(3-chlorobenzyl)piperazin-1-yl]methyl}-3-hydroxyandrostan-17-one]",–,–,–,–,26%,85%,N/A (75)^b %,21%,–
"CC1CN(C[C@@]2(O)CC[C@@]3(C)[C@@H](CC[C@@H]4[C@@H]3CC[C@]3(C)C(=O)CC[C@@H]43)C2)C(C)CN1Cc1cccc(Cl)c1 (stereo partly drawn) [Compound 11e, (3α,5α)-3-{[(2ξ,5ξ)-4-(3-chlorobenzyl)-2,5-dimethylpiperazin-1-yl]methyl}-3-hydroxyandrostan-17-one]",–,–,–,–,26%,84%,N/A (55)^b %,25%,–
"COc1cccc(CN2CC(C)N(C[C@@]3(O)CC[C@@]4(C)[C@@H](CC[C@@H]5[C@@H]4CC[C@]4(C)C(=O)CC[C@@H]54)C3)CC2C)c1 (stereo partly drawn) [Compound 11f, (3α,5α)-3-hydroxy-3-{[(2ξ,5ξ)-4-(3-methoxybenzyl)-2,5-dimethylpiperazin-1-yl]methyl}androstan-17-one]",19%,87%,50%,21%,–,–,–,–,–
"C[C@]12CC[C@@]3(C[C@@H]1CC[C@@H]1[C@@H]2CC[C@]2(C)C(=O)CC[C@@H]12)CN(CCO)C(=O)O3 [Compound 21, (3R,5S,8R,9S,10S,13S,14S)-3′-(2-hydroxyethyl)-10,13-dimethyltetrahydrodecahydro-2′H-spiro[cyclopenta[α]phenanthrene-3,5′-[1,3]oxazolidine]-2′,17(2H)-dione]",–,–,–,–,–,–,–,–,"inhibition at 0.01 µM (17β-HSD3 [1]; read-out: Homo (%) (0.01 μM), Table 4): 0%; inhibition at 0.1 µM (17β-HSD3 [1]; read-out: Homo (%) (0.1 μM), Table 4): 9%; inhibition at 1 µM (17β-HSD3 [1]; read-out: Homo (%) (1.0 μM), Table 4, 1.0 μM): 38%; Intact cells (%) (0.1 μM), tested in another experiment (17β-HSD3 [2]; Table 4, footnote b, 0.1 μM): 16^b %; IC50 (17β-HSD10): 550 nM"
"C[C@]12CC[C@](O)(CN3CCN(Cc4cccc(SC(F)(F)F)c4)CC3)C[C@@H]1CC[C@@H]1[C@@H]2CC[C@]2(C)C(=O)CC[C@@H]12 [Compound 10d, (3α,5α)-3-hydroxy-3-[(4-{3-[(trifluoromethyl)sulfanyl]benzyl}piperazin-1-yl)methyl]androstan-17-one]",3%,91%,–,29%,–,–,N/A (62)^b %,–,–
"CC1CN(S(=O)(=O)c2cccc(C(F)(F)F)c2)C(C)CN1C[C@@]1(O)CC[C@@]2(C)[C@@H](CC[C@@H]3[C@@H]2CC[C@]2(C)C(=O)CC[C@@H]32)C1 (stereo partly drawn) [Compound 15a, (3α,5α)-3-{[(2ξ,5ξ)-2,5-dimethyl-4-{[3-(trifluoromethyl)phenyl]sulfonyl}piperazin-1-yl]methyl}-3-hydroxyandrostan-17-one]",–,–,–,–,32%,91%,–,42%,Intact cells (%) (0.1 μM) (17β-HSD3 [2]; 0.1 μM): 77%
"CC1CN(C(=O)c2ccc(C(F)(F)F)cc2)C(C)CN1C[C@@]1(O)CC[C@@]2(C)[C@@H](CC[C@@H]3[C@@H]2CC[C@]2(C)C(=O)CC[C@@H]32)C1 (stereo partly drawn) [Compound 13d, (3α,5α)-3-{[(2,5)-2,5-dimethyl-4-{[4-(trifluoromethyl)phenyl]carbonyl}piperazin-1-yl]methyl}-3-hydroxyandrostan-17-one]",–,–,–,–,17%,91%,–,22%,Intact cells (%) (0.1 μM) (17β-HSD3 [2]; 0.1 μM): 61%
"COc1cccc(CN2CCN(C[C@@]3(O)CC[C@@]4(C)[C@@H](CC[C@@H]5[C@@H]4CC[C@]4(C)C(=O)CC[C@@H]54)C3)CC2)c1 [Compound 10f, (3α,5α)-3-hydroxy-3-{[4-(3-methoxybenzyl)piperazin-1-yl]methyl}androstan-17-one]",21%,83%,47%,59%,–,–,–,–,IC50 (17β-HSD10): 550 nM
"CC1CN(CC2(O)CCC3(C)C(CCC4C5CCC(=O)C5(C)CCC43)C2)C(C)CN1Cc1cccnc1 (stereo not drawn) [Compound 11g, (3α,5α)-3-{[(2ξ,5ξ)-2,5-dimethyl-4-(pyridin-3-ylmethyl)piperazin-1-yl]methyl}-3-hydroxyandrostan-17-one]",–,–,–,–,17%,47%,N/A (58)^b %,21%,–
"C[C@]12CC[C@](O)(CN3CCN(Cc4cccnc4)CC3)C[C@@H]1CC[C@@H]1[C@@H]2CC[C@]2(C)C(=O)CC[C@@H]12 [Compound 10g, (3α,5α)-3-hydroxy-3-{[4-(pyridin-3-ylmethyl)piperazin-1-yl]methyl}androstan-17-one]",10%,33%,–,37%,–,–,N/A (63)^b %,–,–
"CC1CN(CC2(O)CCC3(C)C(CCC4C5CCC(=O)C5(C)CCC43)C2)C(C)CN1Cc1ccccc1C(F)(F)F (stereo not drawn) [Compound 11b, (3α,5α)-3-({(2ξ,5ξ)-2,5-dimethyl-4-[2-(trifluoromethyl)benzyl]piperazin-1-yl}methyl)-3-hydroxyandrostan-17-one]",–,–,–,–,22%,85%,–,25%,Intact cells (%) (0.1 μM) (17β-HSD3 [2]; 0.1 μM): 36%
"C[C@]12CC[C@](O)(CN3CCN(S(=O)(=O)c4cccc(C(F)(F)F)c4)CC3)C[C@@H]1CC[C@@H]1[C@@H]2CC[C@]2(C)C(=O)CC[C@@H]12 [Compound 14a, (3α,5α)-3-hydroxy-3-[(4-{[3-(trifluoromethyl)phenyl]sulfonyl}piperazin-1-yl)methyl]androstan-17-one]",21%,82%,–,3%,–,–,N/A (71)^b %,–,–
"CC1CN(C[C@@]2(O)CC[C@@]3(C)[C@@H](CC[C@@H]4[C@@H]3CC[C@]3(C)C(=O)CC[C@@H]43)C2)C(C)CN1Cc1cccc(SC(F)(F)F)c1 (stereo partly drawn) [Compound 11d, (3α,5α)-3-{[(2ξ,5ξ)-2,5-dimethyl-4-{3-[(trifluoromethyl)sulfanyl]benzyl}piperazin-1-yl]methyl}-3-hydroxyandrostan-17-one]",–,–,–,–,18%,88%,N/A (58)^b %,27%,–
CC1CN(S(=O)(=O)c2ccccc2C(F)(F)F)C(C)CN1CC1(O)CCC2(C)C(CCC3C4CCC(=O)C4(C)CCC32)C1 (centres unmarked) [Compound 15c],–,–,–,–,79%,92%,–,18%,Intact cells (%) (0.1 μM) (17β-HSD3 [2]; 0.1 μM): 47%
"C[C@]12CC[C@](O)(CN3CCN(Cc4cccc(C(F)(F)F)c4)CC3)C[C@@H]1CC[C@@H]1[C@@H]2CC[C@]2(C)C(=O)CC[C@@H]12 [Compound 10a, (3α,5α)-3-hydroxy-3-({4-[3-(trifluoromethyl)benzyl]piperazin-1-yl}methyl)androstan-17-one]",51%,88%,52%,34%,–,–,–,–,–
